This test deals with T1, P2X7 receptor (Homo sapiens, UniProt Q99572).
T1 construct: host or cells: SH-SY5Y
T1 sequence (Q99572 1-595): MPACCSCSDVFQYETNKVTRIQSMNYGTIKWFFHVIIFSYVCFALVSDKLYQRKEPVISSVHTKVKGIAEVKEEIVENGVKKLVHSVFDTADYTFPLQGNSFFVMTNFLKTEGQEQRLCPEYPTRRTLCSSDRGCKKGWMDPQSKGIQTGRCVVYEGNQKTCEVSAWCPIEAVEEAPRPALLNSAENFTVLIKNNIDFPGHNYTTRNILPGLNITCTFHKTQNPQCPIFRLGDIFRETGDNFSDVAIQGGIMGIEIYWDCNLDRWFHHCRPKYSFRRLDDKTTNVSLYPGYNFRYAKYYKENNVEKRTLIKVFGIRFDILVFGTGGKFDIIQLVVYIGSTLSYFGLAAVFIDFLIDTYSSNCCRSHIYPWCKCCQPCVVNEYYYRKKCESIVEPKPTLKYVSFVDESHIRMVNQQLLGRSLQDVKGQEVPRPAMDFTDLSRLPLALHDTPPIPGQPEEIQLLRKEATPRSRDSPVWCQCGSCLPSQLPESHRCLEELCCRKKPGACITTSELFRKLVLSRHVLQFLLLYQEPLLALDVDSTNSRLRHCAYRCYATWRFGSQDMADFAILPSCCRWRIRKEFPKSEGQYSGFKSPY
Briefly: P2X7 calcium mobilization assay, high throughput, antagonist activity (Example 4A). Format: cell-based. The settings on record: 50% decrease in the fluorescence response of cells exposed to 80 μM of 2′(3′)-O-(4-benzoyl-benzoyl)adenosine 5′-triphosphate; Example 4A; read-out: IC50. In outline:
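Cells plated 100,000/well the day before; after 1 h dye loading and one rinse, cells were preincubated 1 h at room temperature with test compound. Calcium mobilization then read on FLIPR^TETRA; maximum RFU corrected by subtracting mean no-agonist response and referenced to mean agonist-control maximum.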
(Calcium flux is commonly read through the fluorescence of an indicator in the cells.)

Broadly, the IC50 is the concentration needed to halve the response being measured. In the case of `CN(Cc1ccc(C(F)(F)F)cn1)C(=O)c1cn2c(C(=O)NCC34CC5CC(CC(C5)C3)C4)cccc2n1` [Compound 711, 5-N-(adamantan-1-ylmethyl)-2-N-methyl-2-N-{[5-(trifluoromethyl)pyridin-2-yl]methyl}imidazo[1,2-a]pyridine-2,5-dicarboxamide], the IC50 was less than 2 µM. `CCc1ccc(CN(C)C(=O)c2cn3c(C(=O)NCC45CC6CC(CC(C6)C4)C5)cccc3n2)cn1` [Compound 712, 5-N-(adamantan-1-ylmethyl)-2-N-[(6-ethylpyridin-3-yl)methyl]-2-N-methylimidazo[1,2-a]pyridine-2,5-dicarboxamide]: the IC50 was less than 2 µM. For the compound `CCc1ccc(CN(C)C(=O)c2cn3c(C(=O)NCC45CC6CC(CC(C6)C4)C5)cccc3n2)nc1` [Compound 713, 5-N-(adamantan-1-ylmethyl)-2-N-[(5-ethylpyridin-2-yl)methyl]-2-N-methylimidazo[1,2-a]pyridine-2,5-dicarboxamide], the IC50 is less than 2 µM.

As for `O=C(NCC12CC3CC(CC(C3)C1)C2)c1cccc2nc(C(=O)N3CCCN(C4CCC4)CC3)cn12` [Compound 714, N-(adamantan-1-ylmethyl)-2-[(4-cyclobutyl-1,4-diazepan-1-yl)carbonyl]imidazo[1,2-a]pyridine-5-carboxamide], the IC50 was less than 2 µM. The result for `CCN(Cc1ccc(C2=NCCN2)cc1)C(=O)c1cn2c(C(=O)NCC34CC5CC(CC(C5)C3)C4)cccc2n1` [Compound 715, 5-N-(adamantan-1-ylmethyl)-2-N-[4-(4,5-dihydro-1H-imidazol-2-yl)benzyl]-2-N-ethylimidazo[1,2-a]pyridine-2,5-dicarboxamioe] reads less than 2 µM; that for `CC(C)c1ccc(CN(C)C(=O)c2cn3c(C(=O)NCC45CC6CC(CC(C6)C4)C5)cccc3n2)nc1` [Compound 716, 5-N-(adamantan-1-ylmethyl)-2-N-[(5-isopropylpyridin-2-yl)methyl]-2-N-methylimidazo[1,2-a]pyridine-2,5-dicarboxamide], less than 2 µM. The result for `CC(C)c1ccc(CN(C)C(=O)c2cn3c(C(=O)NCC45CC6CC(CC(C6)C4)C5)cccc3n2)cn1` [Compound 717, 5-N-(adamantan-1-ylmethyl)-2-N-[(6-isopropylpyridin-3-yl)methyl]-2-N-methylimidazo[1,2-a]pyridine-2,5-dicarboxamide] reads less than 2 µM. The result for `Cn1cc2c(n1)CCN(C(=O)c1cn3c(C(=O)NCC45CC6CC(CC(C6)C4)C5)cccc3n1)C2` [Compound 718, N-(adamantan-1-ylmethyl)-2-[(2-methyl-2,4,6,7-tetrahydro-5H-pyrazolo[4,3-c]pyridin-5-yl)carbonyl]imidazo[1,2-a]pyridine-5-carboxamide] reads less than 2 µM. In the case of `O=C(NCC12CC3CC(CC(C3)C1)C2)c1cccc2nc(C(=O)N3CCC(N4CCCC4)C3)cn12` (stereo not drawn) [Compound 719, N-(adamantan-1-ylmethyl)-2-(1,3′-bipyrrolidin-1′-ylcarbonyl)imidazo [1,2-a]pyridine-5-carboxamide], the IC50 was less than 2 µM. Under `COCCN(C)C1CCN(C(=O)c2cn3c(C(=O)NCC45CC6CC(CC(C6)C4)C5)cccc3n2)CC1` [Compound 720, N-(adamantan-1-ylmethyl)-2-({4-[(2-methoxyethyl)(methyl)amino]piperidin-1-yl}carbonyl)imidazo[l, 2-a]pyridine-5-carboxamide] stands less than 2 µM; under `O=C(NCC12CC3CC(CC(C3)C1)C2)c1cccc2nc(C(=O)N3CCN(C4CCOCC4)CC3)cn12` [Compound 721, N-(adamantan-1-ylmethyl)-2-{[4-(tetrahydro-2H-pyran-4-yl)piperazin-1-yl]carbonyl}imidazo[1,2-a]pyridine-5-carboxamide], less than 2 µM. The result for `Cn1ncc2c1CCN(C(=O)c1cn3c(C(=O)NCC45CC6CC(CC(C6)C4)C5)cccc3n1)C2` [Compound 723, N-(adamantan-1-ylmethyl)-2-[(1-methyl-1,4,6,7-tetrahydro-5H-pyrazolo[4,3-c]pyridin-5-yl)carbonyl]imidazo[1,2-a]pyridine-5-carboxamide] reads less than 2 µM.

Source of the values: US8431593B2, “Heteroaryl amide derivatives” (H. Lundbeck A/S, priority 2006, dated 2013).
